Measured values published in PubChem BioAssay (NCI).
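48-hour exposure; five concentrations; linearly interpolated endpoints. The concentration for full growth arrest is given as TGI.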 Where a SMILES comes first, the peptide text is derived from it. [ ]: non-standard residue; d: D form. The star is where a group is joined. X28 = COC1=CC(=O)N(C(=O)[C@@H](O*)C(C)C)[C@H]1Cc1ccccc1; NMeV = CN[C@H](C(=O)O)C(C)C; Hexanoyl = CCCCCC(=O)*

Legend:
Assay in all cases: NCI-60 cell line screen, 48 h
PC-3 prostate = tested on: PC-3 prostate
HS 578T breast = tested on: HS 578T breast
SF-268 CNS = tested on: SF-268 CNS
MALME-3M melanoma = tested on: MALME-3M melanoma
SW-620 colon = tested on: SW-620 colon
HOP-92 NSCLC = tested on: HOP-92 NSCLC
SK-OV-3 ovarian = tested on: SK-OV-3 ovarian
NCI/ADR-RES ovarian = tested on: NCI/ADR-RES ovarian
MOLT-4 leukemia = tested on: MOLT-4 leukemia
U251 CNS = tested on: U251 CNS
RXF 393 renal = tested on: RXF 393 renal
UO-31 renal = tested on: UO-31 renal
OVCAR-8 ovarian = tested on: OVCAR-8 ovarian
A498 renal = tested on: A498 renal
HOP-62 NSCLC = tested on: HOP-62 NSCLC
T-47D breast = tested on: T-47D breast
M14 melanoma = tested on: M14 melanoma
OVCAR-5 ovarian = tested on: OVCAR-5 ovarian
CAKI-1 renal = tested on: CAKI-1 renal
EKVX NSCLC = tested on: EKVX NSCLC

Compound | TGI (PC-3 prostate) [µM] | TGI (HS 578T breast) [µM] | TGI (SF-268 CNS) [µM] | TGI (MALME-3M melanoma) [µM] | TGI (SW-620 colon) [µM] | TGI (HOP-92 NSCLC) [µM] | TGI (SK-OV-3 ovarian) [µM] | TGI (NCI/ADR-RES ovarian) [µM] | TGI (MOLT-4 leukemia) [µM] | TGI (U251 CNS) [µM] | TGI (RXF 393 renal) [µM] | TGI (UO-31 renal) [µM] | TGI (OVCAR-8 ovarian) [µM] | TGI (A498 renal) [µM] | TGI (HOP-62 NSCLC) [µM] | TGI (T-47D breast) [µM] | TGI (M14 melanoma) [µM] | TGI (OVCAR-5 ovarian) [µM] | TGI (CAKI-1 renal) [µM] | TGI (EKVX NSCLC) [µM]
O=C(/C=C/c1csc(-c2ccccc2)n1)NCc1ccc(C(=O)NCCc2ccccc2)cc1 | > 100 | > 100 | > 100 | > 100 | > 100 | 36.8 | 56.2 | > 100 | > 100 | > 100 | 23.4 | > 100 | 63 | 64.8 | 6.86 | > 100 | > 100 | > 100 | 50.3 | > 100
CCC1NC(=O)C1NC(=O)OC (stereo unspecified) | > 100 | > 100 | – | > 100 | > 100 | > 100 | > 100 | > 100 | > 100 | > 100 | > 100 | > 100 | > 100 | > 100 | > 100 | > 100 | > 100 | > 100 | > 100 | > 100
CS(=O)(=O)N1CC(CCl)c2ccc([N+](=O)[O-])cc21 (stereo unspecified) | > 100 | > 100 | > 100 | > 100 | > 100 | > 100 | > 100 | > 100 | > 100 | > 100 | > 100 | > 100 | > 100 | > 100 | > 100 | > 100 | > 100 | > 100 | > 100 | > 100
CCCC1(NC(=O)C(F)(F)F)CC(OC)OC2COC(c3ccccc3)OC21 (stereo unspecified) | > 100 | > 100 | > 100 | > 100 | > 100 | > 100 | > 100 | > 100 | > 100 | > 100 | > 100 | > 100 | > 100 | > 100 | > 100 | > 100 | > 100 | > 100 | > 100 | > 100
O=C(CCC(NC(=O)OCc1ccccc1)C(=O)OCc1ccccc1)Nc1ccc(OCc2ccccc2)cc1 (stereo unspecified) | 28.4 | > 31.6 | > 31.6 | > 31.6 | > 31.6 | > 31.6 | > 31.6 | > 31.6 | > 31.6 | 28 | > 31.6 | > 10 | 20.2 | > 10 | > 100 | > 31.6 | > 100 | > 100 | > 31.6 | > 31.6
O=C1c2ccccc2S(=O)(=O)c2c1cccc2[N+](=O)[O-] | > 9.02 | > 10 | > 9.38 | 3.02 | 3.47 | 9 | > 10 | 6.55 | 6.04 | > 8.28 | 8.44 | 3.92 | 5.46 | > 8.45 | > 10 | 5.9 | 3.4 | > 10 | 9.83 | > 8.6
CC[C@H]1C=CCC[C@@]2(C[C@@H]3CC[C@@H]4[C@H](C(=O)OCCCCCCCCCCCCCCCC(=O)O)[C@]5(CCC[C@@H](C)O5)NC(=[N+]34)N2)O1 | 1.9 | 2.13 | 3.07 | 0.423 | 6.37 | 0.615 | 11.8 | 14.8 | 2.84 | 0.903 | 1.9 | 0.339 | 8.03 | 1.23 | 3.6 | 11.9 | 0.212 | 8.73 | 3.47 | 10.5
CC(=O)NC(CS/N=N/c1nc[nH]c1C(N)=O)C(=O)O (stereo unspecified) | > 100 | > 100 | > 100 | > 29.3 | > 100 | > 100 | > 100 | > 100 | > 36.1 | > 100 | > 100 | > 100 | > 100 | > 100 | > 100 | > 100 | > 100 | > 100 | > 41.2 | > 100
C/C(=N/NC(=S)Nc1ccc([N+](=O)[O-])cc1)c1cccc(/C(C)=N\NC(=S)Nc2ccc([N+](=O)[O-])cc2)n1 | 18.7 | > 81.7 | > 100 | 9.13 | 16.1 | 11.6 | 10.7 | > 29.9 | – | 14.6 | 4.73 | 4.97 | – | 9.74 | 11.1 | 24.2 | 2.7 | 21.7 | 8.06 | 12.8
COC(O)C(=O)c1c2c(cc3c1CC1(Cc4cc5c(cc4C1)CCC5)C3)CCC2 (stereo unspecified) | 30.8 | 53.3 | 36.1 | 31.2 | 35.5 | 31 | 31.8 | 34 | 33.8 | 25.7 | 29 | 35.8 | 33.6 | 31.8 | 30.2 | 50.4 | 31 | 33.5 | 37.4 | 41.1
O=C1c2c(ccc3c2CCCC3)CC12Cc1ccc3c(c1C2=O)CCCC3 | > 100 | > 100 | > 100 | > 100 | > 100 | > 100 | > 100 | > 100 | > 100 | > 100 | > 100 | > 100 | > 100 | > 100 | > 100 | > 100 | > 100 | > 100 | – | > 100
CC#CC#C/C=C1/O[C@]2(CCC(OC(C)=O)CO2)[C@@H]2O[C@H]12 (stereo partly specified) | 80.9 | > 100 | > 100 | 35.6 | 95.9 | 92.9 | > 100 | 58.1 | 57 | 39.1 | 47.5 | 39 | > 100 | 45.7 | > 100 | 52.1 | 67.6 | 71.2 | 63.6 | 77.5
CCOC(=O)C1=[N+]([O-])OC2=C(O)CCCC21 (stereo unspecified) | > 100 | > 100 | > 100 | > 100 | > 100 | > 100 | > 100 | > 100 | > 100 | > 100 | > 100 | > 100 | > 100 | > 100 | > 100 | > 100 | > 100 | > 100 | > 100 | > 100
N=c1oc2c(Cl)cc(Cl)cc2cc1C(=O)Nc1cccc2ccccc12 | > 100 | > 53.2 | > 100 | > 100 | 27.1 | 97.7 | > 77.6 | 28.2 | > 37.5 | 7.01 | 76.8 | > 40.9 | 14.2 | 23.7 | 42.3 | 25.2 | > 100 | > 100 | > 67.7 | > 74.3
O=S(=O)(O)c1ccc2cccc(N=Nc3c(O)ccc4ccccc34)c2c1 | > 100 | > 100 | > 100 | > 100 | > 100 | > 100 | > 100 | > 100 | > 100 | > 100 | > 100 | > 100 | > 100 | > 100 | > 100 | > 100 | > 100 | > 100 | > 100 | > 100
COC(=O)C1=CC2CCCC1(O)C(C(C)=O)C2 (stereo unspecified) | > 100 | > 100 | > 67.3 | > 100 | > 100 | > 100 | > 100 | > 100 | 43.8 | > 100 | > 100 | 38.6 | > 79.5 | > 100 | > 100 | > 100 | > 100 | > 100 | > 100 | > 86.6
CCOC(CN=C=S)OCC | > 10 | > 10 | > 10 | > 10 | > 10 | > 10 | > 10 | > 10 | > 10 | > 10 | > 10 | > 10 | > 10 | > 10 | > 10 | > 10 | > 10 | – | > 10 | > 10
O=c1c2nn3c(=O)n(-c4ccccc4)c(=O)c3nn2c(=O)n1-c1ccccc1 | > 100 | > 100 | > 100 | > 100 | > 100 | > 100 | > 100 | > 100 | > 100 | > 100 | > 100 | > 100 | > 100 | > 100 | > 100 | > 100 | > 100 | > 100 | > 100 | > 100
NC(=O)c1cc2cc(Cl)cc(Cl)c2oc1=Nc1ccc(F)cc1 | 44.3 | > 100 | > 100 | 43 | > 100 | 80.4 | 56.5 | 34.5 | 37.1 | 41.2 | 37 | > 100 | > 100 | 35.3 | > 100 | 73.5 | 45.5 | 54.6 | 38 | 34.5
CCCCCC(=O)N[C@H](C(=O)N[C@H](C(=O)N(C)[C@H](C(=O)N1CCC[C@H]1C(=O)N1CCC[C@H]1C(=O)O[C@H](C(=O)N1C(=O)C=C(OC)[C@@H]1Cc1ccccc1)C(C)C)C(C)C)C(C)C)C(C)C (Hexanoyl-VV[NMeV]PP-X28) | 85.5 | > 100 | > 100 | > 100 | > 100 | > 100 | > 100 | > 100 | > 100 | > 100 | 62.7 | > 100 | > 100 | > 100 | > 100 | > 100 | – | > 100 | > 100 | > 100
O=[N+]([O-])c1ccc(-c2nnc(C34CC5CC(CC(C5)C3)C4)o2)cc1 | > 100 | > 100 | > 100 | > 100 | > 100 | > 100 | > 100 | > 100 | > 100 | > 100 | > 100 | > 100 | – | > 100 | > 100 | > 100 | > 100 | > 100 | > 100 | > 100
CC(C)(Br)C(Br)CCC(C)(Br)C(Br)CO (stereo unspecified) | > 10 | > 10 | > 10 | > 10 | > 10 | > 10 | > 10 | > 10 | > 10 | > 10 | > 10 | > 10 | > 10 | > 10 | > 10 | > 10 | > 10 | – | > 10 | > 10
CCSCCC(N)C(=O)O (stereo unspecified) | > 100 | > 100 | > 100 | > 100 | > 100 | > 100 | > 100 | > 100 | > 100 | > 100 | > 100 | > 100 | > 100 | > 100 | > 100 | > 100 | > 100 | > 100 | – | > 100
